What all share (test): NCI anticancer screen, dose series, 48 h
Experiment [1] deals with UACC-62 melanoma.
For experiment [2], the system named is HOP-92 NSCLC.
Experiment [3] has as its system NCI/ADR-RES ovarian.
Experiment [4] relates to OVCAR-8 ovarian.
In experiment [5] the test system is T-47D breast.
Experiment [6] relates to UACC-257 melanoma.
For experiment [7], the system named is K-562 leukemia.
The test system of experiment [8] is M14 melanoma.
In experiment [9] the test system is SNB-75 CNS.
Experiment [10] relates to SW-620 colon.

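Each compound was tested at five concentrations against cells in 96-well plates for 48 hours. At the GI50, growth is halved. TGI denotes the concentration required for complete inhibition of growth.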

These results are taken from PubChem BioAssay (NCI).

`CCCCCCCCCCCCNC(=O)N[C@H](C(=O)N[C@H]1/C=C/OCCNC(=O)/C=C/[C@H](C(C)C)NC1=O)C(C)C`: the GI50 in experiment [1] is 3.1 µM; in experiment [2], 5.14 µM; in [3], over 100 µM; in [4], 13.7 µM; in [5] it was 3.14 µM; in [6] it was 20 µM. The GI50 was 9.15 µM in experiment [7], 20.2 µM in experiment [8] and 4.31 µM in experiment [9]. Also, the TGI in [1] is 39 µM; in [2] it was 58.7 µM; in experiment [3], over 100 µM; in experiment [4] it was 34.1 µM; in experiment [5] it was over 100 µM; in [6] it was over 93.7 µM. In addition, the results for the TGI in [7], in experiment [8] and in [9] were over 100 µM, over 70.3 µM and over 100 µM, respectively.
Take `N#CCC1CCN(c2nc(Nc3ccc(N4CCC(O)CC4)cc3)c3c(=O)[nH]ncc3n2)CC1`: the GI50 in experiment [1] was over 100 µM; in [10], 0.443 µM; in experiment [2] it was 0.239 µM; in [4] it was 8.08 µM; in experiment [5] it was 2.05 µM; in experiment [6], over 100 µM. The results for the GI50 in experiment [7], in experiment [8] and in experiment [9] were 1.51 µM, 0.402 µM and 0.337 µM, respectively. The TGI in [1], in [10], in [2], in experiment [4], in experiment [5] and in experiment [6] was over 100 µM throughout. For the same compound, the TGI in experiment [7] was over 100 µM; in [8] it was over 100 µM; in experiment [9] it was 2.43 µM.
Take `CC1(C)N=C(N)N=C(N)N1c1cccc(CC(=O)Nc2ccccc2)c1`: the GI50 was 8.3 µM in experiment [1]; 4.56 µM in experiment [10]; over 100 µM in experiment [3]; 76.8 µM in experiment [4]; over 100 µM in [5]; over 100 µM in experiment [6]. Besides, the GI50 in experiment [7] is 2.87 µM; in [8], 40.2 µM; in experiment [9], 15.4 µM. Moreover, the TGI in experiment [1], in experiment [10], in [3], in [4], in experiment [5] and in experiment [6] was over 100 µM in each case. Moreover, the TGI in experiment [7], in experiment [8] and in [9] was over 100 µM throughout.
For `CCc1ccc2cc3c(ccc4ccccc43)c3c2c1CC3`, the GI50 in experiment [1], in experiment [10], in experiment [2], in experiment [3], in experiment [4] and in experiment [5] was over 100 µM throughout. For the same compound, the GI50 in [7], in experiment [8] and in experiment [9] was over 100 µM throughout. Also, the TGI in experiment [1], in experiment [10], in experiment [2], in experiment [3], in experiment [4] and in [5] was over 100 µM throughout. The TGI in experiment [7], in experiment [8] and in experiment [9] was over 100 µM in each case.
For `COc1cc(C(=O)N[C@@H]2CCCN(C)C2)ccc1Nc1ncc2c(n1)N(C1CCCC1)CC(C)(C)C(=O)N2C`, the GI50 in experiment [1] is 0.153 µM; in experiment [10], 0.0347 µM; in [3] it was 0.344 µM; in experiment [4], 0.0541 µM; in experiment [5], 1.12 µM; in experiment [6], 0.285 µM. In addition, the GI50 in experiment [7] was 0.0378 µM; in [8], 0.0494 µM; in experiment [9], 0.134 µM. Further, the TGI in [1] worked out at 15.5 µM; in [10], 16.7 µM; in [3] it was 16.2 µM; in experiment [4] it was 16.8 µM; in experiment [5], 17.8 µM; in [6], 2.63 µM. In addition, the results for the TGI in experiment [7], in experiment [8] and in experiment [9] were 3.19 µM, 0.769 µM and 4.74 µM, respectively.
With `C/C=C/C(C/C=C(\C)CO[Si](C)(C)C(C)(C)C)O[Si](C)(C)C(C)(C)C` (centres undefined), the TGI in [1], in experiment [10], in experiment [3], in experiment [4], in [5] and in experiment [6] was over 100 µM throughout. For the same compound, the TGI in experiment [7], in [8] and in [9] was over 100 µM in each case.
As for `c1c[nH]c(CN2CCN(Cc3ncc[nH]3)CC2)n1`, the TGI in experiment [1], in [10], in experiment [2], in experiment [3], in experiment [4] and in experiment [5] was over 100 µM throughout. The TGI in experiment [6], in [8] and in experiment [9] was over 100 µM each time.
For the compound `COc1cc(-c2nn(-c3cccc(NC(=O)NCCNC(=O)c4ccccc4)c3)cc2-c2ccncc2)ccc1Cl`, the GI50 was 3.08 µM in experiment [1]; 0.824 µM in [10]; 2.63 µM in [2]; 0.576 µM in experiment [4]; 1.25 µM in experiment [5]; 3.96 µM in [6]. For the same compound, the GI50 is 2.88 µM in [8] and 5.84 µM in experiment [9]. For the same compound, the TGI in experiment [1] was 31.2 µM; in experiment [10], over 100 µM; in [2], over 100 µM; in experiment [4] it was 41.7 µM; in experiment [5], 8.79 µM; in experiment [6], 21.1 µM. Further, the TGI in experiment [8] and in [9] was over 100 µM in each case.
For `Cc1nn(-c2ccccc2)c2c1[C@@H](C)[C@H]1CC3(CC4(C)C[C@@H]3C1(C)c1c(C)nn(-c3ccccc3)c1N4C)N2C` (some centres undefined), the GI50 in experiment [2] is 0.792 µM; in [3] it was over 100 µM; in experiment [5] it was 2.64 µM. The results for the TGI in experiment [2], in experiment [3] and in experiment [5] were 8.68 µM, over 100 µM and over 100 µM, respectively.
For the compound `O=C(/C=C/c1c[nH]c2ccccc12)c1ccccc1O`, the TGI in experiment [1] came out at 21 µM; in [10], 59.7 µM; in experiment [2], 17.1 µM; in experiment [4], 39.2 µM; in experiment [5] it was 7.29 µM; in experiment [6], 31.5 µM. In addition, the TGI is over 100 µM in [7], 27 µM in [8] and 27.2 µM in experiment [9].
